From paper PMC7979765, “trans-Translation inhibitors bind to a novel site on the ribosome and clear Neisseria gonorrhoeae in vivo” (Nature Communications, 2021)
Where “and” joins values, the source holds several entries; their conditions need not be identical. Equal entries are not always repeated. Where two headings read alike, the source gives them in different places.

Key:
[1] = Murine tolerability studies; type: in vivo; details: for adverse effects (in words): mice
Procedure: Single dose tolerability studies — Female CD-1 mice were fasted for 2 h prior, and 4 h after dosing. […] 4–6 weeks-old CD-1 female mice were received from Charles River laboratories and acclimated for at least 5 days prior to the start of the study. Apart from specific instances of fasting described in the experimental, the mice had free access to food and water. The animals were housed 3–6 per cage in a temperature and humidity-controlled room with a 12 h light cycle. All procedures described are in compliance with the Animal Welfare Act, the Guide for the Care and Use of Laboratory Animals, and the Office of Laboratory Animal Welfare. These studies conform to the NeoSome IACUC policies and Operational Guidelines as approved by the IACUC membership, NeoSome Safety Officers, or Attending Veterinarian. All testing was performed at Neosome LLC.
Multidose tolerability studies — In preparation for this study, an abbreviated version of the above murine PK study using the same formulation (A) examined fasted mice vs. fed mice was performed, with plasma samples taken at 1 and 4 h post dosing and analyses as described in the PK section.
Female CD-1 mice were given free access to food and water. […] Any abnormal observations (behavior, agility, weight, coat condition and appearance, color of urine, quality of feces, etc.) were noted.

[2] = Multiplexed cytotoxicity assay (nuclei, ROS, TMRE); type: cell-based, human; details: human, human primary hepatocytes; for fold induction at 24 h, 1 μM: 1.00E+00 μM; for fold induction at 24 h, 10 μM: 1.00E+01 μM; for fold induction at 24 h, 100 μM: 1.00E+02 μM; for fold induction at 24 h, 0.1 μM: 1.00E-01 μM; for fold induction at 24 h, 0.0101 μM: 1.01E-02 μM; for fold induction at 24 h, 31.6 μM: 3.16E+01 μM; for fold induction at 24 h, 3.17 μM: 3.17E+00 μM; for fold induction at 24 h, 0.317 μM: 3.17E-01 μM; for fold induction at 24 h, 0.0318 μM: 3.18E-02 μM; for fold induction at 24 h, 0.00318 μM: 3.18E-03 μM
Procedure: (§1) Multiplexed cytotoxicity assay — Human primary hepatocytes were grown on collagen I coated optical plates, cultured in hepatocytes culture media in a humidified 5% CO2 atmosphere at 37 °C. Cells were incubated in the presence of MBX-4132 at 10 concentrations starting a 100 µM and serially diluted 3.16-fold for 24 h at 37 °C, incubated for 30 min with multiplexed fluorescent dyes (Hoescht, 6-carboxy-2’,7’-dichlorodihydrofluorescein diazetat, and TMRE) and imaged to allow visualization of nuclei, reactive oxygen species generation, and mitochondrial oxidation. A >3.5-fold induction of ROS was considered consistent with formation of ROS and a >2-fold change in TMRE signal indicated an increase or decrease in mitochondrial membrane potential.

[3] = tested on: Human primary hepatocytes; assay: Multiplexed cytotoxicity assay (nuclei, ROS, TMRE); type: cell-based
Procedure: as §1

CYP450 enzymes = assay: CYP450 inhibition assays (panel statement); type: in vitro ADME, human; details: 5 concentrations from 30 nM to 100 μM
Procedure: (§2) Several in vitro selectivity assays were performed at Eurofins Discovery Services using established methods and controls that behaved as expected (Supplementary Tables 5 and 6). […] For receptor panel profiling, MBX-4132 was evaluated at 10 μM and activity of >50% (agonist or antagonist; note that negative % inhibition indicates agonism) was scored as active.

CYP1A = assay: Cyp inhibition assay 4876; type: in vitro ADME, human; details: catalog reference 4876
Procedure: as §2

Monoamine Oxidase MAO-A = biological target: T1, Monoamine Oxidase MAO-A (Homo sapiens, UniProt P21397); assay: Receptor Profiling 140010; type: biochemical; details: negative % inhibition indicates agonism
T1 construct: Eurofins Discovery Services (contract assay) 140010
Procedure: as §2

Phosphodiesterase PDE3A = biological target: T2, Phosphodiesterase PDE3A (Homo sapiens, UniProt Q14432); assay: Receptor Profiling 152300; type: biochemical
T2 construct: Eurofins Discovery Services (contract assay) 152300
Procedure: as §2

Adrenergic α1A = biological target: T3, Adrenergic α1A (Homo sapiens, UniProt P35348); assay: Receptor Profiling 203110; type: binding
T3 construct: purchased Eurofins Discovery Services (Panlabs safety panel)
Procedure: as §2

Androgen (testosterone) = biological target: T4, Androgen (testosterone) (Homo sapiens, UniProt P10275); assay: Receptor Profiling 206000; type: binding
T4 construct: purchased Eurofins Discovery Services (Panlabs safety panel)
Procedure: as §2

Cannabinoid CB2 = biological target: T5, Cannabinoid CB2 (Homo sapiens, UniProt P34972); assay: Receptor Profiling 217100; type: binding
T5 construct: purchased Eurofins Discovery Services (Panlabs safety panel)
Procedure: as §2

Endothelin ETA = biological target: T6, Endothelin ETA (Homo sapiens, UniProt P25101); assay: Receptor Profiling 224010; type: binding
T6 construct: purchased Eurofins Discovery Services (Panlabs safety panel)
Procedure: as §2

Muscarinic M1 = biological target: T7, Muscarinic M1 (Homo sapiens, UniProt P11229); assay: Receptor Profiling 252610; type: binding
T7 construct: purchased Eurofins Discovery Services (Panlabs safety panel)
Procedure: as §2

Muscarinic M3 = biological target: T8, Muscarinic M3 (Homo sapiens, UniProt P20309); assay: Receptor Profiling 252810; type: binding
T8 construct: purchased Eurofins Discovery Services (Panlabs safety panel)
Procedure: as §2

[4] = biological target: T9, Nicotinic Acetylcholine α4β2, Cytisine (Homo sapiens, UniProt P17787+P43681); assay: Receptor Profiling 299031; type: binding
T9 construct: purchased Eurofins Discovery Services (Panlabs safety panel)
Procedure: as §2

Potassium Channel [KA] = assay: Receptor Profiling 265510; type: binding, rat; details: 10 μM
Procedure: as §2

[5] = biological target: T10, Transporter, Serotonin (5-Hyroxytryptamine) (SERT) (Homo sapiens, UniProt P31645); assay: Receptor Profiling 274030; type: binding
T10 construct: purchased Eurofins Discovery Services 274030
Procedure: as §2

Vasopressin V1A = biological target: T11, Vasopressin V1A (Homo sapiens, UniProt P37288); assay: Receptor Profiling 287530; type: binding
T11 construct: purchased Eurofins Discovery Services 287530
Procedure: as §2

[6] = mouse
in vitro = details: mouse, serum
[7] = read-out: Mean MMP inhibition (fold induction)
[8] = read-out: Mean ROS (fold induction)

T9 sequence (P43681 29-627 limits assumed): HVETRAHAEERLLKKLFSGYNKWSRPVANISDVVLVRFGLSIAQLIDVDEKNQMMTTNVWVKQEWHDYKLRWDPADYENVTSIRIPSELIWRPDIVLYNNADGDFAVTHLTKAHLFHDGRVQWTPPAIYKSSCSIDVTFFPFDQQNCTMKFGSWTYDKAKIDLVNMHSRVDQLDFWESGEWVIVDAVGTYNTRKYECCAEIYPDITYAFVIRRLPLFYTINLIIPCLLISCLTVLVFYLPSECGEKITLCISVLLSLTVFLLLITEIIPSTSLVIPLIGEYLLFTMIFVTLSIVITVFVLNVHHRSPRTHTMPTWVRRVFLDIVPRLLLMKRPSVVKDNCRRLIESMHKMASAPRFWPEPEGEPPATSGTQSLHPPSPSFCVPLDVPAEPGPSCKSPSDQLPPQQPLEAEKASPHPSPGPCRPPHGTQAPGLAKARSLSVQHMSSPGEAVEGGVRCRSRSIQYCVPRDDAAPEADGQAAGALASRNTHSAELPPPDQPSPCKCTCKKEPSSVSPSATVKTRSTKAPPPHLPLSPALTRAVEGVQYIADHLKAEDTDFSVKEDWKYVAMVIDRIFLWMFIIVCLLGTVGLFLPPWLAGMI
T9 sequence (P17787 26-502): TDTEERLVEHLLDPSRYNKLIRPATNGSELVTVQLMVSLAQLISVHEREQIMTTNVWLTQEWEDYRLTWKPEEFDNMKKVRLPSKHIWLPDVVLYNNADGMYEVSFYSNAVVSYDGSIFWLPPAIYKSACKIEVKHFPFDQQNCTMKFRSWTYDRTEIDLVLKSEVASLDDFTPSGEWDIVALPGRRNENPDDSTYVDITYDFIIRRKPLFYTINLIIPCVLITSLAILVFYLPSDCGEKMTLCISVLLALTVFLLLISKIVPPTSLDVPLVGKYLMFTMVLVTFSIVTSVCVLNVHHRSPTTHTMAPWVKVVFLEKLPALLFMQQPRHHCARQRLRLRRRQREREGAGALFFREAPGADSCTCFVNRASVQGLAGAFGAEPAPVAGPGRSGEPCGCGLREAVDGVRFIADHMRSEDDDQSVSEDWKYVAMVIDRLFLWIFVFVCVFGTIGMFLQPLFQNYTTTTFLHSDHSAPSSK
T11 sequence (P37288 whole entry): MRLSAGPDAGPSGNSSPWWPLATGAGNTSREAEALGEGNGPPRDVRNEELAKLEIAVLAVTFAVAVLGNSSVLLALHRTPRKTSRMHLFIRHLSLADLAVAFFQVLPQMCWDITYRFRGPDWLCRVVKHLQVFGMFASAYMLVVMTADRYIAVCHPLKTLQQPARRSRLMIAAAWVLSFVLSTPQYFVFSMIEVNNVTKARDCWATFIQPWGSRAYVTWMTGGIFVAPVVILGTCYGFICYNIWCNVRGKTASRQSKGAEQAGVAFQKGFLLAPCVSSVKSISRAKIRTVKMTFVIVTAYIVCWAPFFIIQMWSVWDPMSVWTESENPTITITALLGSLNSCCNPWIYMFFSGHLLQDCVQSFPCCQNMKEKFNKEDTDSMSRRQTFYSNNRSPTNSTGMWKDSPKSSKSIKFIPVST
T10 sequence (P31645 whole entry): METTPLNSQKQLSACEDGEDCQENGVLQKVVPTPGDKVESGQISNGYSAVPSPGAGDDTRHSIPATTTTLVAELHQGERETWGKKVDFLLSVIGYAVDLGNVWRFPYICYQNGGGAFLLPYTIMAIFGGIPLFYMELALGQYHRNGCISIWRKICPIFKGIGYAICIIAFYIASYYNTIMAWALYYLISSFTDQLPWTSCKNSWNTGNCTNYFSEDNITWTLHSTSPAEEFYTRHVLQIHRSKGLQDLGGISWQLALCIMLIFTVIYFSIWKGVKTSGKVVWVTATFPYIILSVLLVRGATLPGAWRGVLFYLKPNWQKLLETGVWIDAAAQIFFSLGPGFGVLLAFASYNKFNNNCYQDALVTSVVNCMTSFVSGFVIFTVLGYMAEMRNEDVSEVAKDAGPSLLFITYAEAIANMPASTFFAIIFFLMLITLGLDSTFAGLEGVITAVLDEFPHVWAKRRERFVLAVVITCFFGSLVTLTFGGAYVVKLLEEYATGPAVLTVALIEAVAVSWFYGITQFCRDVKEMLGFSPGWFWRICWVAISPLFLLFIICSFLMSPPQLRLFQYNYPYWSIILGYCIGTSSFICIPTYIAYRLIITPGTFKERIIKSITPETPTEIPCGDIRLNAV
T7 sequence (P11229 whole entry): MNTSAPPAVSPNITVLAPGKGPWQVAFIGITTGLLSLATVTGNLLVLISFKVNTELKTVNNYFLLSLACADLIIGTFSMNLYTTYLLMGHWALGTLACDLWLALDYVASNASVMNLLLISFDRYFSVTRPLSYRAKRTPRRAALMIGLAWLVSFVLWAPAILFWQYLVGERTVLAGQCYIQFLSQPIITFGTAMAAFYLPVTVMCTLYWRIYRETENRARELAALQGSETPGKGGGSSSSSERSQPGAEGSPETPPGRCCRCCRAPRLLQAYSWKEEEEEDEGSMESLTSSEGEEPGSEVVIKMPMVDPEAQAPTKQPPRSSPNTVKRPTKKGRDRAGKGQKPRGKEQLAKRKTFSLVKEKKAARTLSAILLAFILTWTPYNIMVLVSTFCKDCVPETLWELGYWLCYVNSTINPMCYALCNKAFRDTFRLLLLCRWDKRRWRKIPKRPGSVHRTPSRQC
T6 sequence (P25101 21-427): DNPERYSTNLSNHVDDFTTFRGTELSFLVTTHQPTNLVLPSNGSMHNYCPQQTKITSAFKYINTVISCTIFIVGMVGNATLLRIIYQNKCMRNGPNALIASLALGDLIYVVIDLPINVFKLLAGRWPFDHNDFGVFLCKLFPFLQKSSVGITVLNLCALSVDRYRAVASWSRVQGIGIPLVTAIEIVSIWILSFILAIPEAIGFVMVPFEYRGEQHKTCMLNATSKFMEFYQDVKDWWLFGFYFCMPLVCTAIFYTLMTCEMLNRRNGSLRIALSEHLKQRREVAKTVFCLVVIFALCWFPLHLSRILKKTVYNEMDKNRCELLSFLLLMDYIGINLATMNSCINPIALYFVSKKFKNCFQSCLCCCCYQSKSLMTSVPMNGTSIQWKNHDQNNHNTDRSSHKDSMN
T8 sequence (P20309 whole entry): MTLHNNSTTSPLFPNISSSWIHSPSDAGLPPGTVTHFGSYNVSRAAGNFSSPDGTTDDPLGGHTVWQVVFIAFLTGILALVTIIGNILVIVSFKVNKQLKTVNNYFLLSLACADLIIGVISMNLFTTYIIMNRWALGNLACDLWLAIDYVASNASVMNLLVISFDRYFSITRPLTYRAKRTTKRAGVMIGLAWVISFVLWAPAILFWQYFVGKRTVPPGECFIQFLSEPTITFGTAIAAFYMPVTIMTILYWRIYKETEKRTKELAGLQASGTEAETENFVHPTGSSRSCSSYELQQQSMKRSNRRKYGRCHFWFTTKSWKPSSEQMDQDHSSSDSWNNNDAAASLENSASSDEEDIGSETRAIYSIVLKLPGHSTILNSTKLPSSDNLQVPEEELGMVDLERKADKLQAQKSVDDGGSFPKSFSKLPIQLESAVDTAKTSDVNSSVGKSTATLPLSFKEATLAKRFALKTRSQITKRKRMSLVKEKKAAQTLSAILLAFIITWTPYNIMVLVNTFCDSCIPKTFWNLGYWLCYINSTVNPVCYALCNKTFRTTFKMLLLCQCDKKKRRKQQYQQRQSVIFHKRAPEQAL
T1 sequence (P21397 whole entry): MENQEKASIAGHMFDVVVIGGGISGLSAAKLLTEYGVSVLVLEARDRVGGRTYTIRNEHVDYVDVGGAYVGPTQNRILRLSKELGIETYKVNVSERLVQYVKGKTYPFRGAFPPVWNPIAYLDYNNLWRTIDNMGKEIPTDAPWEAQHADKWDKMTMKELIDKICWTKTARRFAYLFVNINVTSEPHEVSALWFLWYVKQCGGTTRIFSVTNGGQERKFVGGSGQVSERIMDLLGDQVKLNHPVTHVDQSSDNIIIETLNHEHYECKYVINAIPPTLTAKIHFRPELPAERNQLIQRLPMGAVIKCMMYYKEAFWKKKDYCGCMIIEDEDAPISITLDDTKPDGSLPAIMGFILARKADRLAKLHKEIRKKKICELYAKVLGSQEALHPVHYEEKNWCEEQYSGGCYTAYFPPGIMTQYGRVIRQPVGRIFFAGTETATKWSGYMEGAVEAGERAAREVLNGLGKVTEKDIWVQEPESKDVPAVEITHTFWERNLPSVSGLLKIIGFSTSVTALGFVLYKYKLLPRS
T3 sequence (P35348 whole entry): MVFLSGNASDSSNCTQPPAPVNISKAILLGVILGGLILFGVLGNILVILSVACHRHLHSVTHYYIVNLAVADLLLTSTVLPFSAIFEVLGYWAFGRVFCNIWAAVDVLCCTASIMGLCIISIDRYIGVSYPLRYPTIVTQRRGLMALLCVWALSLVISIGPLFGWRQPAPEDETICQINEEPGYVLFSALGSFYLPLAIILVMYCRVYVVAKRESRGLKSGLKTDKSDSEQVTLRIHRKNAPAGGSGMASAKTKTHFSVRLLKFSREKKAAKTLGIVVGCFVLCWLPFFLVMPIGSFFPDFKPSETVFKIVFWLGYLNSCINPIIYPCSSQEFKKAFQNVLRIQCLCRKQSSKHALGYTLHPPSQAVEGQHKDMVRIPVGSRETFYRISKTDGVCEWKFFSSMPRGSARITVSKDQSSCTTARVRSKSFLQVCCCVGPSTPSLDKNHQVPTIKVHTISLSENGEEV
T5 sequence (P34972 whole entry): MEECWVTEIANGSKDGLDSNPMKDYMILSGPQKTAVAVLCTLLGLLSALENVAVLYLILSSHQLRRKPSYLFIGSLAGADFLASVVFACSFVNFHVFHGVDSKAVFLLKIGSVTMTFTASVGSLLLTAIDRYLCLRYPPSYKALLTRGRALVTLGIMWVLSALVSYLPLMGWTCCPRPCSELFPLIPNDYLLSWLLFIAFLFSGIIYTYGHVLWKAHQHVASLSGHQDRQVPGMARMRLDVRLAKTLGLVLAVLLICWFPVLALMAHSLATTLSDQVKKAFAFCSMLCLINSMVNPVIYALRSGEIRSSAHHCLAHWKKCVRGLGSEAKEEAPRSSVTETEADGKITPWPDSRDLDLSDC

Structure (SMILES): O=C(Nc1nnc(-c2ccc(F)cc2)o1)N1CCc2ccccc2C1 [MBX-4132]
- abnormal observations, multidose tolerability ([1]; female CD-1 mice, 10 ml/kg of 1.0 mg/ml suspension QD or BID for 7 d, observed 10 d): No abnormal observations
- abnormal observations, single dose tolerability ([1]; female CD-1 mice, oral gavage 10 ml/kg of 1.0, 2.5 or 10.0 mg/ml suspension, 24 h): No abnormal observations
- adverse effects (in words) ([1]; repeat dosing 10 mg/kg BID, 7 d): no obvious adverse effects
- adverse effects (in words) ([1]; single dose of 100 mg/kg): no obvious adverse effects
- fold induction at 24 h, 1 μM [2, 7]: 0.9
- fold induction at 24 h, 1 μM [2, 8]: 1.2
- fold induction at 24 h, 10 μM [2, 7]: 1.1
- fold induction at 24 h, 10 μM [2, 8]: 1.9
- fold induction at 24 h, 100 μM [2, 7]: 0.8
- fold induction at 24 h, 100 μM [2, 8]: 9.2
- fold induction at 24 h, 0.1 μM [2, 7]: 1.2
- fold induction at 24 h, 0.1 μM [2, 8]: 1.4
- fold induction at 24 h, 0.0101 μM [2, 7]: 1
- fold induction at 24 h, 0.0101 μM [2, 8]: 1.4
- fold induction at 24 h, 31.6 μM [2, 7]: 1.1
- fold induction at 24 h, 31.6 μM [2, 8]: 1.3
- fold induction at 24 h, 3.17 μM [2, 7]: 1
- fold induction at 24 h, 3.17 μM [2, 8]: 1.1
- fold induction at 24 h, 0.317 μM [2, 7]: 0.9
- fold induction at 24 h, 0.317 μM [2, 8]: 1.2
- fold induction at 24 h, 0.0318 μM [2, 7]: 0.9
- fold induction at 24 h, 0.0318 μM [2, 8]: 0.9
- fold induction at 24 h, 0.00318 μM [2, 7]: 1
- fold induction at 24 h, 0.00318 μM [2, 8]: 3.1
- Attached live cells (%) ([3]; 1.00E+00 μM, 24 h): 106.3%
- Attached live cells (%) ([3]; 1.00E+00 μM, replicates): 108.6% and 104.0%
- Attached live cells (%) ([3]; 1.00E+01 μM, 24 h): 97.7%
- Attached live cells (%) ([3]; 1.00E+01 μM, replicates): 104.3% and 91.1%
- Attached live cells (%) ([3]; 1.00E+02 μM, 24 h): 69.6%
- Attached live cells (%) ([3]; 1.00E+02 μM, replicates): 78.3% and 60.9%
- Attached live cells (%) ([3]; 1.00E-01 μM, 24 h): 96.7%
- Attached live cells (%) ([3]; 1.00E-01 μM, replicates): 101.6% and 91.8%
- Attached live cells (%) ([3]; 1.01E-02 μM, 24 h): 109.5%
- Attached live cells (%) ([3]; 1.01E-02 μM, replicates): 115.4% and 103.6%
- Attached live cells (%) ([3]; 3.16E+01 μM, 24 h): 89.5%
- Attached live cells (%) ([3]; 3.16E+01 μM, replicates): 92.0% and 87.0%
- Attached live cells (%) ([3]; 3.17E+00 μM, 24 h): 99.6%
- Attached live cells (%) ([3]; 3.17E+00 μM, replicates): 103.9% and 95.3%
- Attached live cells (%) ([3]; 3.17E-01 μM, 24 h): 114.0%
- Attached live cells (%) ([3]; 3.17E-01 μM, replicates): 124.2% and 103.8%
- Attached live cells (%) ([3]; 3.18E-02 μM, 24 h): 97.5%
- Attached live cells (%) ([3]; 3.18E-02 μM, replicates): 106.1% and 88.9%
- Attached live cells (%) ([3]; 3.18E-03 μM, 24 h): 105.6%
- Attached live cells (%) ([3]; 3.18E-03 μM, replicates): 110.9% and 100.3%
- effect on mitochondrial membrane polarity (in words) ([3]; high concentrations, human hepatocytes): no effect
- CYP450 inhibitory activity (in words) (CYP450 enzymes): no inhibitory activity >50%
- pIC50 (µM) reported (CYP1A): No activity
- inhibition at 10 µM (Monoamine Oxidase MAO-A): -108%
- inhibition at 10 µM (Phosphodiesterase PDE3A): -6%
- inhibition at 10 µM (Adrenergic α1A): 6%
- inhibition at 10 µM (Androgen (testosterone)): -2%
- inhibition at 10 µM (Cannabinoid CB2): -4%
- inhibition at 10 µM (Endothelin ETA): -15%
- inhibition at 10 µM (Muscarinic M1): -7%
- inhibition at 10 µM (Muscarinic M3): 5%
- inhibition at 10 µM [4]: -5%
- % inhibition (Potassium Channel [KA]): -2%
- inhibition at 10 µM [5]: -10%
- inhibition at 10 µM (Vasopressin V1A): -4%
- Murine serum stability (% remaining after 1 hr) [6]: 101%
- remaining at 1 h (in vitro; Murine serum stability (% remaining after 1 hr)): 109%
- remaining at 1 h (in vitro; Murine serum stability (% remaining after 1 hr), Replicate 1/2, MBX): 92.6%
- remaining at 1 h (in vitro; Murine serum stability (% remaining after 1 hr), Reported value, MBX): > 99.8%
- remaining at 1 h (in vitro; serum stability, % remaining after 1 h, murine serum, 1 h incubation at 37 °C): > 99.8%
